Patent publication US5242945A, “Tetronic and thiotetronic acid derivatives as phospholipase A2 inhibitors” (American Home Products Corporation, priority 1991, dated 1993)
Where two headings read alike, the source gives them in different places.

Assays:
[1] = tested on: carrageenan paw edema; test: rat carrageenan paw edema assay; format: in vivo, rat (Sprague-Dawley)
Method: The compounds of the invention are further tested in the rat carrageenan paw edema assay to determine their ability to inhibit the acute inflammatory response.
140-180 g Male Sprague-Dawley rats, in groups of 6 animals are injected subcutaneously in the right paw with 0.1 mL of 1% carrageenan at zero time. Mercury plethysmographic readings (mL) of the paw are made at zero time and 3 hours later. Test compounds are suspended or dissolved in 0.5% methylcellulose and given perorally 1 hour prior to carrageenan administration.
The increase in paw volume (edema in mL) produced by the carrageenan is measured. Paw edema is calculated (3 hour volume minus zero time volume), and percent inhibition of edema is determined. Unpaired Student's t-test is used to determine statistical significance.

[2] = target: T1, human synovial fluid PLA2 (Homo sapiens, UniProt P14555); test: in vitro isolated phospholipase A2 assay, human synovial fluid PLA2; format: biochemical; details: for IC50: Table IV, read-out: IC50 HSF (human synovial fluid); for inhibition at 10 µM: + values given without explanation, read-out: % Inhibition HSF (human synovial fluid)
T1 construct: Purified human synovial fluid; from tissue; host or cells: human synovial fluid
T1 sequence (P14555 21-144): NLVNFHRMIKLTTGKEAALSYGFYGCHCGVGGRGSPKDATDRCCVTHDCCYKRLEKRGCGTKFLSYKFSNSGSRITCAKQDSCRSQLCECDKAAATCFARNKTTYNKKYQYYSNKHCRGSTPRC
In short: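 PLA2 from semipurified human platelet acid extract or purified human synovial fluid, preincubated 30 min at room temperature with compound. ³H-arachidonate-labelled E. coli substrate then added in Tris-HCl pH 7.5, with enzyme giving about 12% hydrolysis. Reaction ran 10 min at 37° C; released arachidonic acid recovered on NH2 columns and measured by β-counting.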

[3] = tested on: cyclooxygenase (PGE2 or TxB2 synthesis); test: inhibition of synthesis of cyclooxygenase products PGE2 and TxB2 by rat polymorphonuclear leukocytes; format: cell-based, rat (female Wistar); details: Leukocyte, rat PMN; for inhibition at 10 µM: + with * denotes potentiation
Method: (§1) Rat polymorphonuclear leukocytes (PMNs) are obtained from female Wistar rats (150-200 g) which receive an injection of 6% glycogen (10 ml i.p.). Rats are sacrificed 18-24 hours post injection by CO2 asphyxiation and the elicited cells are harvested by peritoneal lavage using physiological saline (0.9% NaCl). The exudate is centrifuged at 400 xg for 10 minutes. The supernatant fluid is discarded and the cell pellet is resuspended to a concentration of 2.0×10^7 cells/mL in HBSS containing Ca^++ and Mg^++ and 10 μM L-cysteine.
(§2) To 1 mL aliquots of cell suspension, test drugs or vehicle are added, then preincubated at 37° C. for 10 minutes. A23187 (1 μM), [^3 H]-AA (3.0 μCi/mL) and unlabeled AA (1 μM) are then added and the samples are further incubated for 10 minutes. The reaction is terminated by centrifugation and pelleting cells. Supernatants are then analyzed by HPLC analysis on a 15 cm×4.6 mm ID supelcosil LC-18 (Supelco)(3M) column, using a two solvent system at a flow rate of 1.4 mL total flow as follows:
In this assay, the procedure of Example 58 is carried out as described. However, in order to determine cyclooxygenase activity, the samples are co-chromatographed with authentic reference [^3 H]-TxB2 or [^3 H]-PGE2.
The results are calculated as in Example 58 and presented below: […]

[4] = tested on: lipoxygenase (LTB4 or 5HETE synthesis); test: inhibition of LTB4 and 5-HETE synthesis by rat glycogen-elicited polymorphonuclear leukocytes; format: cell-based, rat (female Wistar); details: Leukocyte, rat PMN; for inhibition at 10 µM: + with * denotes potentiation
From the text: This is especially true with respect to 5,12-diHETE, which is also denoted as LTB4 [see Ford-Hitchinson, J. Roy. Soc. Med., 74, 831 (1981)]. Compounds which inhibit the PLA2 -mediated release of arachidonic acid thereby effectively prevent the oxidation of arachidonic acid to the various leukotriene products via the lipoxygenase cascade. Accordingly, the specificity of action of PLA2 inhibitors can be determined by the activity of test compounds in this assay, which measures the ability of compounds to inhibit the synthesis of LTB4 and 5-HETE by rat glycogen-elicited polymorphonuclear leukocytes (PMN) in the presence of exogenous substrate.
as §1, §2
Injections: 140 μL of each supernatant is injected directly onto column and ^3 H arachidonic acid metabolites are monitored using an on-line radioactivity detector (Ramona, IN/US, Fairfield, N.J.).
Co-chromatography with standard [^3 H] leukotriene B4 (LTB4) in medium of stimulated PMN exposed to drug is compared to that found in medium of stimulated cells exposed to no drug, generating percent inhibition.
Results are expressed as percent inhibition at a given compound dose or as an IC50 value.

CCCCCCCCCC(=O)C1=C(O)COC1=O [Example 1, 4-Hydroxy-3-(1-oxodecyl)-2(5H)-furanone] was tested, and the “% Inhibition” value ([1]; 50 mg/kg peroral) was 40%, the IC50 [2] was 10.8 µM and the inhibition at 10 µM [2] was 35.1%. For the same molecule, the inhibition at 50 µM ([3]; at 50 μM) was 71% and the inhibition at 50 µM ([4]; at 50 μM) was 60%.

CCCCCCCC/C=C\CCCCCCCC(=O)C1=C(O)COC1=O [Example 9, (Z)-4-Hydroxy-3-(1-oxo-9-octadecenyl)-2(5H)-furanone] was tested, and the “% Inhibition” value ([1]; 100 mg/kg peroral (dose column)) was 41%, the IC50 [2] was 1.1 µM and the inhibition at 10 µM [2] was 97.3%. For the same molecule, the inhibition at 10 µM ([3]; read-out: % Inhibition TxB2) was 31% and the inhibition at 10 µM ([4]; read-out: % Inhibition LTB4) was 1%.

CCCCC/C=C\C/C=C\CCCCCCCC(=O)C1=C(O)COC1=O [Example 14, (Z,Z)-4-Hydroxy-3-(1-oxo-9,12-octadecadienyl)-2(5H)-furanone] gave an IC50 [2] of 0.48 µM and an inhibition at 10 µM [2] of 95%.

With CC/C=C\C/C=C\C/C=C\CCCCCCCC(=O)C1=C(O)COC1=O [Example 15, (Z,Z,Z)-4-Hydroxy-3-(1-oxo-9,12,15-octadecatrienyl)-2(5H)-furanone] the inhibition at 10 µM [2] was 77.5%.

CCCCCCCCCCC/C=C\CCCCC(=O)C1=C(O)COC1=O [Example 18, (Z)-4-Hydroxy-3-(1-oxo-6-octadecenyl)-2(5H)-furanone] gave an inhibition at 10 µM [2] of 9%.

CCCCC/C=C\C/C=C\C/C=C\CCCCC(=O)C1=C(O)COC1=O [Example 20, (Z,Z,Z)-4-Hydroxy-3-(1-oxo-6,9,12-octadecatrienyl)-2(5H)-furanone] showed an inhibition at 10 µM [2] of 81%.

With CCCCCC1CC1CC1CC1CCCCCCCC(=O)C1=C(O)COC1=O (stereo not drawn) [Example 22, 4-Hydroxy-3-[1-oxo-8-[2-[(2-pentylcyclopropyl)methyl]cyclopropyl]octyl]-2(5H)-furanone] the IC50 [2] was 2.5 µM and the inhibition at 10 µM [2] was 89.8%.

With CCCC/C=C\CCCCCCCC(=O)C1=C(O)COC1=O [Example 25, 4-Hydroxy-3-((Z)-1-oxo-9-tetradecenyl)-2(5H)-furanone] the IC50 [2] was 33.4 µM, the inhibition at 10 µM [2] was 28.8% and the inhibition at 10 µM ([3]; read-out: % Inhibition PGE2) was 68%. For the same molecule, the inhibition at 10 µM ([3]; read-out: % Inhibition TxB2) was 8%, the inhibition at 10 µM ([4]; read-out: % Inhibition 5-HETE) was 81% and the inhibition at 10 µM ([4]; read-out: % Inhibition LTB4) was 8%.

Molecule O=C(CCCCCCC/C=C\c1ccc(Cl)cc1)C1=C(O)COC1=O [Example 35, 3-[(Z)-10-(4-chlorophenyl)-1-oxo-9-decenyl]-4-hydroxy-2(5H)-furanone] has an IC50 [2] of 16 µM and an inhibition at 10 µM [2] of 28.4%.

Molecule CCCCC/C=C\C/C=C\CCCCCCCC(=O)C1=C(O)CSC1=O [Example 46, 4-Hydroxy-3[(Z,Z)-1-oxo-9,12-octadecadienyl]-2(5H)-thiophenone] has an inhibition at 10 µM [2] of 72%.

CCCCCCCC/C=C\CCCCCCCC(=O)C1=C(O)CSC1=O [Example 47, 4-Hydroxy-3-[(Z)-1-oxo-9-octadecenyl]-2(5H)-thiophenone] was tested, and the inhibition at 10 µM [2] was 34.8%.

CCCC/C=C\CCCCCCCC(=O)C1=C(O)CSC1=O [Example 48, 4-Hydroxy-3-[(Z)-1-oxo-9-tetra-decenyl]-2(5H)-thiophenone] was tested, and the inhibition at 10 µM [2] was 50.9%.

In the case of CCCCC/C=C\C/C=C\C/C=C\CCCCC(=O)C1=C(O)CSC1=O [Example 50, 4-Hydroxy-3-[(Z,Z,Z)-1-oxo-6,9,12-octadecatrienyl]-2(5H)-thiophenone], the inhibition at 10 µM [2] is reported as 55.9%.

CCCCCCCCCCC/C=C\CCCCC(=O)C1=C(O)CSC1=O [Example 51, 4-Hydroxy-3-[(Z)-1-oxo-6-octadecenyl]-2(5H)-thiophenone] was tested, and the inhibition at 10 µM [2] was 29.4%.
